Laboratory results taken from ChEMBL document CHEMBL1255531, “Utilization of a nitrogen-sulfur nonbonding interaction in the design of new 2-aminothiazol-5-yl-pyrimidines as p38α MAP kinase inhibitors” (Bioorg Med Chem Lett, 2010).
In brackets after ≈: the same amount, converted by molar mass. Blank lines part the entries; values can stand above or below the molecule they belong to. Activity calls are given as the source filed them. The rule behind the calls is not given here.

What was measured:
[1] = molecular target: Mitogen-activated protein kinase 14 (Homo sapiens, UniProt Q16539); assay: Inhibition of bacterially expressed activated p38alpha pre-incubated 10 mins measured after 45 mins by scintillation counting
[2] = test system: PBMC; assay: Antiinflammatory activity in human PBMC assessed as inhibition of LPS-induced TNFalpha production after 6 hrs by ELISA; assay type: functional, cell-based
[3] = Aqueous solubility of the compound at pH 6.5; assay type: physicochemical; settings: buffer
[4] = molecular target: LIM domain kinase 1 (Homo sapiens, UniProt P53667); assay: Inhibition of LIMK1
[5] = molecular target: LIM domain kinase 2 (Homo sapiens, UniProt P53671); assay: Inhibition of LIMK2
[6] = Selectivity ratio of IC50 for p38alpha to IC50 for LIMK1
[7] = Selectivity ratio of IC50 for p38alpha to IC50 for LIMK2
[8] = molecular target: Tyrosine-protein kinase ABL1 (Homo sapiens) (UniProt P00519); assay: Inhibition of ABL1 at 10 uM relative to control
[9] = molecular target: 5'-AMP-activated protein kinase catalytic subunit alpha-1 (Homo sapiens) (UniProt Q13131); assay: Inhibition of AMPKA1 at 10 uM relative to control
[10] = molecular target: Aurora kinase A (Homo sapiens) (UniProt O14965); assay: Inhibition of aurora A at 10 uM relative to control
[11] = molecular target: Aurora kinase C (Homo sapiens) (UniProt Q9UQB9); assay: Inhibition of aurora C at 10 uM relative to control
[12] = molecular target: Calcium/calmodulin-dependent protein kinase type 1 (Homo sapiens) (UniProt Q14012); assay: Inhibition of CAMK1A at 10 uM relative to control
[13] = molecular target: Calcium/calmodulin-dependent protein kinase type 1D (Homo sapiens) (UniProt Q8IU85); assay: Inhibition of CAMK1D at 10 uM relative to control
[14] = molecular target: Cyclin-dependent kinase 2 (Homo sapiens) (UniProt P24941); assay: Inhibition of CDK2 at 10 uM relative to control
[15] = molecular target: Casein kinase I isoform epsilon (Homo sapiens) (UniProt P49674); assay: Inhibition of CK1E at 10 uM relative to control
[16] = molecular target: Dual specificity protein kinase CLK1 (Homo sapiens) (UniProt P49759); assay: Inhibition of CLK1 at 10 uM relative to control
[17] = molecular target: Tyrosine-protein kinase CSK (Homo sapiens) (UniProt P41240); assay: Inhibition of CSK at 10 uM relative to control
[18] = molecular target: Death-associated protein kinase 2 (Homo sapiens) (UniProt Q9UIK4); assay: Inhibition of DAPK2 at 10 uM relative to control
[19] = molecular target: Epidermal growth factor receptor (Homo sapiens) (UniProt P00533); assay: Inhibition of EGFR at 10 uM relative to control
[20] = molecular target: Ephrin type-A receptor 2 (Homo sapiens) (UniProt P29317); assay: Inhibition of EPHA2 at 10 uM relative to control
[21] = molecular target: Ephrin type-B receptor 4 (Homo sapiens) (UniProt P54760); assay: Inhibition of EPHB4 at 10 uM relative to control
[22] = molecular target: Fibroblast growth factor receptor 1 (Homo sapiens) (UniProt P11362); assay: Inhibition of FGF1R at 10 uM relative to control
[23] = molecular target: Receptor-type tyrosine-protein kinase FLT3 (Homo sapiens) (UniProt P36888); assay: Inhibition of FLT3 at 10 uM relative to control
[24] = molecular target: Cyclin-G-associated kinase (Homo sapiens) (UniProt O14976); assay: Inhibition of GAK at 10 uM relative to control
[25] = molecular target: Insulin-like growth factor 1 receptor (Homo sapiens) (UniProt P08069); assay: Inhibition of IGF1R at 10 uM relative to control
[26] = molecular target: Insulin receptor (Homo sapiens) (UniProt P06213); assay: Inhibition of INSR at 10 uM relative to control
[27] = molecular target: Vascular endothelial growth factor receptor 2 (Homo sapiens) (UniProt P35968); assay: Inhibition of KDR at 10 uM relative to control
[28] = molecular target: Mitogen-activated protein kinase kinase kinase 4 (Homo sapiens) (UniProt Q9Y6R4); assay: Inhibition of MAP3K4 at 10 uM relative to control
[29] = molecular target: Serine/threonine-protein kinase MARK2 (Homo sapiens) (UniProt Q7KZI7); assay: Inhibition of MARK2 at 10 uM relative to control
[30] = molecular target: MAP kinase-interacting serine/threonine-protein kinase 2 (Homo sapiens) (UniProt Q9HBH9); assay: Inhibition of MNK2 at 10 uM relative to control
[31] = molecular target: Serine/threonine-protein kinase Nek2 (Homo sapiens) (UniProt P51955); assay: Inhibition of NEK2 at 10 uM relative to control
[32] = molecular target: Serine/threonine-protein kinase PAK 1 (Homo sapiens) (UniProt Q13153); assay: Inhibition of PAK1 at 10 uM relative to control
[33] = molecular target: Serine/threonine-protein kinase PAK 4 (Homo sapiens) (UniProt O96013); assay: Inhibition of PAK4 at 10 uM relative to control
[34] = molecular target: Serine/threonine-protein kinase PAK 5 (Homo sapiens) (UniProt Q9P286); assay: Inhibition of PAK5 at 10 uM relative to control
[35] = molecular target: Phosphorylase b kinase gamma catalytic chain, skeletal muscle/heart isoform (Homo sapiens) (UniProt Q16816); assay: Inhibition of PHKG1 at 10 uM relative to control
[36] = molecular target: Serine/threonine-protein kinase pim-1 (Homo sapiens) (UniProt P11309); assay: Inhibition of PIM1 at 10 uM relative to control
[37] = molecular target: Proto-oncogene tyrosine-protein kinase Src (Homo sapiens) (UniProt P12931); assay: Inhibition of SRC at 10 uM relative to control
[38] = molecular target: Serine/threonine-protein kinase 16 (Homo sapiens) (UniProt O75716); assay: Inhibition of STK16 at 10 uM relative to control
[39] = molecular target: Tyrosine-protein kinase SYK (Homo sapiens) (UniProt P43405); assay: Inhibition of SYK at 10 uM relative to control
[40] = molecular target: Angiopoietin-1 receptor (Homo sapiens) (UniProt Q02763); assay: Inhibition of TIE2 at 10 uM relative to control
[41] = molecular target: High affinity nerve growth factor receptor (Homo sapiens) (UniProt P04629); assay: Inhibition of TRKA at 10 uM relative to control
[42] = molecular target: Mitogen-activated protein kinase 8 (Homo sapiens) (UniProt P45983); assay: Inhibition of JNK1 at 10 uM relative to control
[43] = molecular target: Mitogen-activated protein kinase 10 (Homo sapiens) (UniProt P53779); assay: Inhibition of JNK3 at 10 uM relative to control
[44] = molecular target: Mast/stem cell growth factor receptor Kit (Homo sapiens) (UniProt P10721); assay: Inhibition of KIT at 10 uM relative to control
[45] = molecular target: Platelet-derived growth factor receptor beta (Homo sapiens) (UniProt P09619); assay: Inhibition of PDGRB at 10 uM relative to control
[46] = molecular target: Myosin light chain kinase 2, skeletal/cardiac muscle (Homo sapiens) (UniProt Q9H1R3); assay: Inhibition of skeletal muscle MLCK at 10 uM relative to control; settings: Muscle tissue

Mitogen-activated protein kinase 14, sequence (Q16539 whole entry): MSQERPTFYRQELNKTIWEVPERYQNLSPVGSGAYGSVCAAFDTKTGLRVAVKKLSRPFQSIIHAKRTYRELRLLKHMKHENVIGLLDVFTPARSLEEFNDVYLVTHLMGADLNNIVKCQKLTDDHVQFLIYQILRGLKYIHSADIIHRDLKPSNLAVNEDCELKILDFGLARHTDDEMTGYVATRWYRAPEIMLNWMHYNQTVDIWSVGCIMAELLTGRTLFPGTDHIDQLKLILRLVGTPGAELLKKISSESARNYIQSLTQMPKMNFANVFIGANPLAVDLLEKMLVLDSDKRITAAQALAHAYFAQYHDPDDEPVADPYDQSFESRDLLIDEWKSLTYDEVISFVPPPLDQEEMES
LIM domain kinase 1, sequence (P53667 whole entry, the tested form may be a part): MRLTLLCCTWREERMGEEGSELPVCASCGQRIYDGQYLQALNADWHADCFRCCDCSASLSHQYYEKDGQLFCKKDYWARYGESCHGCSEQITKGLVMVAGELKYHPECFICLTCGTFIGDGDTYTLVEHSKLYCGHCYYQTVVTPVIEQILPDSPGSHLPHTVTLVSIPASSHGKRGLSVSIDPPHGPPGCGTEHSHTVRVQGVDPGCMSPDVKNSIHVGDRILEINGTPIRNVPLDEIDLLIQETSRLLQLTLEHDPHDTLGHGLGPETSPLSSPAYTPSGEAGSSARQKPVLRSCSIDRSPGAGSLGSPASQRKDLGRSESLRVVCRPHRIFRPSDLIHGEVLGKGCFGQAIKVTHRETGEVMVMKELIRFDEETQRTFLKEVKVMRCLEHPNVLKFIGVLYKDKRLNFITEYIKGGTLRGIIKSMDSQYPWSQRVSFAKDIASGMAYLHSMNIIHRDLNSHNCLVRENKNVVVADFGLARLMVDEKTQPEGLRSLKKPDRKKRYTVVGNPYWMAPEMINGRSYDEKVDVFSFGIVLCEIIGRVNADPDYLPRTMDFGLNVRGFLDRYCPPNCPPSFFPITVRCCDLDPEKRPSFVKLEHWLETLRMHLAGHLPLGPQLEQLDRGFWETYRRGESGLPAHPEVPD
LIM domain kinase 2, sequence (P53671 whole entry, the tested form may be a part): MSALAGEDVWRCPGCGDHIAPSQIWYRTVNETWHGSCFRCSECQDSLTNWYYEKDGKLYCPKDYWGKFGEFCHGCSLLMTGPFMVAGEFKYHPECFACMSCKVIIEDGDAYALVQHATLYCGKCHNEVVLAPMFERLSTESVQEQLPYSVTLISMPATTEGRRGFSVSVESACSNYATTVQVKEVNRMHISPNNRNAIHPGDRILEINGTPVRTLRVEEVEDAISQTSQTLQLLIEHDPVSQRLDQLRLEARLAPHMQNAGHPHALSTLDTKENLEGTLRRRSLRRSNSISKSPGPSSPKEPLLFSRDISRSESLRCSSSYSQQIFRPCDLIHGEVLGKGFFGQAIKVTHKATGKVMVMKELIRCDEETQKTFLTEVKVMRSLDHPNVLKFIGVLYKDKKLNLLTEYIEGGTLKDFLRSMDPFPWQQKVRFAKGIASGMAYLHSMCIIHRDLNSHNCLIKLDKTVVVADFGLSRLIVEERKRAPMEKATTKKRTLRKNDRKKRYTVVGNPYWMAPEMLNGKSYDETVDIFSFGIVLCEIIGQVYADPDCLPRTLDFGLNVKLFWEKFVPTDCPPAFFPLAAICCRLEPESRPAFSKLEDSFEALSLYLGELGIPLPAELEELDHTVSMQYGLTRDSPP
High affinity nerve growth factor receptor (Homo sapiens), sequence (P04629 33-796 limits assumed): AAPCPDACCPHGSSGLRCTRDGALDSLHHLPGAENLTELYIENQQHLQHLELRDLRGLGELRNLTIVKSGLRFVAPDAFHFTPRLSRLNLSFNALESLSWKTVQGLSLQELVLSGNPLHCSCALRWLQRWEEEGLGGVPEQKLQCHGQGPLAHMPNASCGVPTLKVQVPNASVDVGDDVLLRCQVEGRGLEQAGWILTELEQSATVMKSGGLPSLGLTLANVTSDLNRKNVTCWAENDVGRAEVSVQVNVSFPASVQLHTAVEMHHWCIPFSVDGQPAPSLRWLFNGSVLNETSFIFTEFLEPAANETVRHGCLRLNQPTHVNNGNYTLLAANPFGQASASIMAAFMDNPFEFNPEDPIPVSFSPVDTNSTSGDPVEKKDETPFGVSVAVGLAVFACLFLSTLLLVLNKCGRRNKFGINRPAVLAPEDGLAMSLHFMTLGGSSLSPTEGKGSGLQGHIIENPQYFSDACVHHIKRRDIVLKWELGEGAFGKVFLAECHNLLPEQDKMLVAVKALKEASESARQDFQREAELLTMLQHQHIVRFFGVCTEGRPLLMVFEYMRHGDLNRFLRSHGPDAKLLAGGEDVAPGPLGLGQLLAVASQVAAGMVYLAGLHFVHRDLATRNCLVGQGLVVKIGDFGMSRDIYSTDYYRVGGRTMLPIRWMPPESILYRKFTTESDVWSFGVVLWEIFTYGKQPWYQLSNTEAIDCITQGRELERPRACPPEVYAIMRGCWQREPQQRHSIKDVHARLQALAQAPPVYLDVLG
Calcium/calmodulin-dependent protein kinase type 1 (Homo sapiens), sequence (Q14012 whole entry, looked up): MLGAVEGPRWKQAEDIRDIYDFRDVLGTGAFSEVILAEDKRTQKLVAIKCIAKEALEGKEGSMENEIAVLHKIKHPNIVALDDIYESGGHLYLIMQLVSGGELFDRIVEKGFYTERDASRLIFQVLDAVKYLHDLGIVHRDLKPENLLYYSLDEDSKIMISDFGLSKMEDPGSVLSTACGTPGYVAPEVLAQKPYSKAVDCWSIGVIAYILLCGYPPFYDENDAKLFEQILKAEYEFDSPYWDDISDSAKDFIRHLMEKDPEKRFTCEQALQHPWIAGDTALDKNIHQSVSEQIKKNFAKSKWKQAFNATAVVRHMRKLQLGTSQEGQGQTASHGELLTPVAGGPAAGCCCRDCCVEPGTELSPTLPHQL
Serine/threonine-protein kinase PAK 4 (Homo sapiens), sequence (O96013 whole entry, looked up): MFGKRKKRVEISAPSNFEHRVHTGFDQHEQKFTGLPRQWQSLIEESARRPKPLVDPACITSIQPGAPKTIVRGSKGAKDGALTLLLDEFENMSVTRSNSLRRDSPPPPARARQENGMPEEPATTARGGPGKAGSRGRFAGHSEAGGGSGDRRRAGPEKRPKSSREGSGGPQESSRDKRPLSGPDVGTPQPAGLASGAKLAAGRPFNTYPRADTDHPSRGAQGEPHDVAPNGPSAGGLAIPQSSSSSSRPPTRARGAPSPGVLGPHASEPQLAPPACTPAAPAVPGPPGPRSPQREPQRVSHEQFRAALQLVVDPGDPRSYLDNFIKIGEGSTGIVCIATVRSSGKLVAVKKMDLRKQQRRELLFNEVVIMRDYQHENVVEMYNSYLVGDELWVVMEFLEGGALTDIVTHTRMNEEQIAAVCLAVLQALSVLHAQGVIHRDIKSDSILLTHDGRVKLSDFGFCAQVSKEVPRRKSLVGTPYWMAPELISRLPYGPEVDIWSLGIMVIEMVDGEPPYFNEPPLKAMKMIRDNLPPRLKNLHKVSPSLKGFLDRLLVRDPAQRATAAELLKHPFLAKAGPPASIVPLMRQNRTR
Serine/threonine-protein kinase pim-1 (Homo sapiens), sequence (P11309 whole entry, looked up): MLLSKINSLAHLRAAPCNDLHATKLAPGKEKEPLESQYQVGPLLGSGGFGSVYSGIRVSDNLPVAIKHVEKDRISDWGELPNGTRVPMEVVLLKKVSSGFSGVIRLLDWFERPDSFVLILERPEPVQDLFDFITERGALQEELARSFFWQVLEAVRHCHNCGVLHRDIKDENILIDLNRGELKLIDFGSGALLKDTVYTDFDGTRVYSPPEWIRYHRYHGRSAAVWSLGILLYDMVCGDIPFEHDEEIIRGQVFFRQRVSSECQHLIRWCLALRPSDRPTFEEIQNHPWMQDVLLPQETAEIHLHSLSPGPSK
Proto-oncogene tyrosine-protein kinase Src (Homo sapiens), sequence (P12931 2-536 limits assumed): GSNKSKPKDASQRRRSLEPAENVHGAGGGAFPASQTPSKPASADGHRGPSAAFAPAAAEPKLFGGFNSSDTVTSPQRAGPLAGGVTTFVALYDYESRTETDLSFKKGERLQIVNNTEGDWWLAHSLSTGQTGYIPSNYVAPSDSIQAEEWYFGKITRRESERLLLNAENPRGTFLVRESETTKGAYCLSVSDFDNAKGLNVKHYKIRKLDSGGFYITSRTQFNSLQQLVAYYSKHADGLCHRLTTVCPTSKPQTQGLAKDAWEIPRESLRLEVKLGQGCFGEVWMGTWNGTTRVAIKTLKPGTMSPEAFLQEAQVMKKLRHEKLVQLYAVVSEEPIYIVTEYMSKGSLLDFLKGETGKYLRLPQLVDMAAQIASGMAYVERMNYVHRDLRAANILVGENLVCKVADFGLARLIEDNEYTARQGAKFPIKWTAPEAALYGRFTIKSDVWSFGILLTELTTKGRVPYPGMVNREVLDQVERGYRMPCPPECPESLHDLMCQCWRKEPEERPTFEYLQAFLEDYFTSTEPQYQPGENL
Mitogen-activated protein kinase 10 (Homo sapiens), sequence (P53779 whole entry): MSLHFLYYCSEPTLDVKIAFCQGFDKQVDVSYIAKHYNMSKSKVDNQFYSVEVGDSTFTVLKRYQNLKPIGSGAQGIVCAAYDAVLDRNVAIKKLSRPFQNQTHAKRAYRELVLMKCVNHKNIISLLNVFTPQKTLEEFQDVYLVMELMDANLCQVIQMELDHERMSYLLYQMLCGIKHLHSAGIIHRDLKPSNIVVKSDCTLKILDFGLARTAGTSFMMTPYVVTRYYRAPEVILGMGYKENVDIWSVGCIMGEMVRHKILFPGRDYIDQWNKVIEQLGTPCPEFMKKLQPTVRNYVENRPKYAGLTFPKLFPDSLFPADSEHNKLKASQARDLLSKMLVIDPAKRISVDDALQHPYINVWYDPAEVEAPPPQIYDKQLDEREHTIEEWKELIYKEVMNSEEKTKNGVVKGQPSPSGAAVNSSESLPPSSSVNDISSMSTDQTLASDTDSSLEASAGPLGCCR
Aurora kinase C (Homo sapiens), sequence (Q9UQB9 whole entry): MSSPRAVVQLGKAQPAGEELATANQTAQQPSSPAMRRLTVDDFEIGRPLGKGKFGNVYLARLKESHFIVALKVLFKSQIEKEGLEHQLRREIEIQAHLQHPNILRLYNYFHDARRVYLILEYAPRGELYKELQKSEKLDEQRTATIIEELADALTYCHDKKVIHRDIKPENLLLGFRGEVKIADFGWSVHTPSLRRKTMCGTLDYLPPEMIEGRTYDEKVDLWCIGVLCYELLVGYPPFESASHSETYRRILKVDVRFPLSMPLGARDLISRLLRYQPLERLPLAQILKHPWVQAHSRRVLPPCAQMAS

- IC50 [1]: 223 nM
SMILES: CC(C)Nc1ncc(-c2ccnc(-c3ccccc3Cl)n2)s1

- IC50 [1]: 3940 nM
SMILES: CCCNc1ncc(-c2cc(-c3ccc(OCC)cc3Cl)nc(-c3ccccn3)n2)s1

- IC50 [1]: > 1000 nM
SMILES: CCCNc1ncc(-c2ccnc(C3CC3)n2)s1

- IC50 [1]: 2 nM
SMILES: CNC(=O)NCc1ccccc1-c1cc(-c2cnc(NC(C)C)s2)nc(NCCN(C)C)n1
- IC50 [2]: 12 nM

- IC50 [1]: 8 nM
SMILES: CC(C)Nc1ncc(-c2cc(-c3ccccc3Cl)nc(NCCO)n2)s1
- IC50 [2]: 8 nM

- IC50 [1]: 114 nM
SMILES: Nc1ncc(-c2cc(-c3ccccc3Cl)nc(-c3ccccn3)n2)s1

- IC50 [1]: > 30000 nM
SMILES: CCCNc1ncc(-c2ccnc(-c3ccccc3F)n2)s1

- IC50 [1]: 5 nM
- IC50 [4]: 4.01 nM
- IC50 [5]: 3.05 nM
- solubility [3]: 994 ng/mL (≈ 2.38 µM)
SMILES: CC(C)Nc1ncc(-c2cc(-c3ccccc3Cl)nc(NCCN(C)C)n2)s1
- IC50 [2]: 1 nM

- IC50 [1]: 16 nM
SMILES: Clc1ccccc1-c1cc(-c2cnc(NC3CCC3)s2)nc(-c2ccccn2)n1
- IC50 [2]: 28 nM

- IC50 [1]: 520 nM
SMILES: CCCNc1ncc(-c2cc(-c3ccccc3F)nc(C)n2)s1

- solubility [3]: 5940 ng/mL (≈ 12.3 µM)
- Selectivity ratio [6]: > 10000
- Selectivity ratio [7]: > 10000
- inhibition [8]: inactive
- inhibition [9]: inactive
- inhibition [10]: inactive
- inhibition [11]: inactive
- inhibition [12]: inactive
- inhibition [13]: inactive
- inhibition [14]: inactive
- inhibition [15]: inactive
- inhibition [16]: inactive
- inhibition [17]: inactive
- inhibition [19]: inactive
- inhibition [20]: inactive
- inhibition [21]: inactive
- inhibition [22]: inactive
- inhibition [23]: inactive
- inhibition [24]: inactive
- inhibition [25]: inactive
- inhibition [26]: inactive
- inhibition [27]: inactive
- inhibition [28]: inactive
- inhibition [29]: inactive
- inhibition [30]: inactive
- inhibition [31]: inactive
- inhibition [32]: inactive
- inhibition [33]: inactive
- inhibition [34]: inactive
- inhibition [35]: inactive
- inhibition [36]: inactive
- inhibition [37]: inactive
- inhibition [38]: inactive
- inhibition [39]: inactive
- inhibition [40]: inactive
- inhibition [41]: inactive
- inhibition [42]: 24.9%
- inhibition [43]: 0.2%
- inhibition [44]: 14.5%
- inhibition [45]: 11.3%
- inhibition [46]: inactive
SMILES: CCNC(=O)NCc1ccccc1-c1cc(-c2cnc(NC(C)C)s2)nc(NCCN(C)C)n1
- IC50 [2]: 3 nM
- inhibition [18]: inactive

- IC50 [1]: 573 nM
SMILES: CC(C)Nc1ncc(-c2cc(-c3ccccc3Cl)nc(N(C)C)n2)s1

- IC50 [1]: 6 nM
SMILES: CC(C)Nc1ncc(-c2cc(-c3ccccc3Cl)nc(NCC(O)CO)n2)s1 (stereo not given)
- IC50 [2]: 11 nM

- IC50 [1]: 314 nM
SMILES: CCCNc1ncc(-c2ccnc(-c3ccccn3)n2)s1

- IC50 [1]: 16 nM
SMILES: CC(C)Nc1ncc(-c2cc(-c3ccccc3CNC(=O)NC3CC3)nc(NCCN(C)C)n2)s1
- IC50 [2]: 11 nM

Second part, the molecule before the results:

SMILES: CC[C@@H](C)Nc1ncc(-c2cc(-c3ccccc3Cl)nc(-c3ccccn3)n2)s1
- IC50 [1]: 5 nM
- IC50 [2]: 13 nM
- solubility [3]: < 5 ng/mL

SMILES: CCCNc1ncc(-c2cc(-c3ccccc3OCC)nc(-c3ccccn3)n2)s1
- IC50 [1]: 859 nM

SMILES: CCNc1ncc(-c2cc(-c3ccccc3Cl)nc(-c3ccccn3)n2)s1
- IC50 [1]: 17 nM
- IC50 [2]: 119 nM

SMILES: CC[C@H](C)Nc1ncc(-c2cc(-c3ccccc3Cl)nc(-c3ccccn3)n2)s1
- IC50 [1]: 8 nM
- IC50 [2]: 31 nM
- solubility [3]: < 5 ng/mL

SMILES: Clc1ccccc1-c1cc(-c2cnc(NC3CC3)s2)nc(-c2ccccn2)n1
- IC50 [1]: 17 nM
- IC50 [2]: 22 nM

SMILES: CCCNc1ncc(-c2cc(-c3ccccc3F)nc(C3CC3)n2)s1
- IC50 [1]: > 1000 nM

SMILES: CCCNc1ncc(-c2cc(-c3ccc(F)cc3Cl)nc(-c3ccccn3)n2)s1
- IC50 [1]: 42 nM
- IC50 [2]: 17 nM

SMILES: CCCNc1ncc(-c2cc(-c3ccccc3Cl)nc(-c3ccccn3)n2)s1
- IC50 [1]: 22 nM
- IC50 [2]: 17 nM

SMILES: CC(C)Nc1ncc(-c2cc(-c3ccccc3Cl)nc(N)n2)s1
- IC50 [1]: 16 nM
- IC50 [2]: > 250 nM

SMILES: CCCNc1ncc(-c2cc(-c3ccccc3F)nc(-c3ccccn3)n2)s1
- IC50 [1]: 52 nM
- IC50 [2]: 62 nM

SMILES: CC(C)Nc1ncc(-c2cc(-c3ccccc3Cl)ncn2)s1
- IC50 [1]: 46 nM
- IC50 [2]: 31 nM

SMILES: CCCNc1ncc(-c2cc(-c3ccccc3F)nc(N)n2)s1
- IC50 [1]: 225 nM

SMILES: CC(C)Nc1ncc(-c2cc(-c3ccccc3Cl)nc(-c3ccccn3)n2)s1
- IC50 [1]: 4 nM
- IC50 [2]: 21 nM
- IC50 [4]: 252 nM
- IC50 [5]: 362 nM
- solubility [3]: < 5 ng/mL

SMILES: CCCNc1ncc(-c2cc(-c3ccc(F)cc3)nc(-c3ccccn3)n2)s1
- IC50 [1]: 52 nM
